# Where two headings read alike, the source gives them in different places.
# Key:
# IMR-90 = test: cell-proliferation assay (BrdU, CTG), IMR-90 normal fibroblast; assay type: cell-based; conditions: IMR-90, (normal) human fetal lung fibroblast, 168 hours
# Protocol: (§1) Compound 1 was evaluated in in vitro cell-proliferation assays (BrdU assay, MTS assay, or Cell Titer Glo (CTG) assay) in multiple cancer cell lines and patient-derived organoid models to determine half-maximal inhibitory concentrations (IC50s).
# (§2) Viability and BrdU thymidine incorporation assays were performed in multiwell plates seeded with cells in growth medium. After seeding, multiwell plates were cultured for 24 hours in a humidified incubator at 37° C. to promote adherence. […] The cultures were incubated for 168 hours after which the number of viable cells or the amount of thymidine incorporation in each test well was assessed by the methods as indicated above. Readouts were performed using an EnVision® Multilabel Reader (PerkinElmer, Waltham, MA) and the results were expressed as a percent of the negative control. Percent of Control values were plotted against the corresponding Compound 1 concentration and the relative IC50 value was determined from a non-linear regression curve as the concentration where inhibition was half-maximal. For cell lines where the number of IC50 determinations exceeded one, the IC50 was expressed as the mean IC50±SD.
# (§3) Half-maximal inhibitory concentration (IC50) values for Compound 1 inhibition of cell proliferation were determined for nine cancer cell lines and one normal human fibroblastcell line.
# ZR-75-1 = test: cell-proliferation assay (MTS), ZR-75-1; assay type: cell-based; conditions: ZR-75-1, human breast carcinoma, 168 hours
# Protocol: as §1, §2, §3
# [1] = test system: T002C patient-derived colon cancer organoid model; test: organoid colony formation assay, T002C; assay type: cell-based, human
# Protocol: (§4) The IC50 values for Compound 1 inhibition of colony formation and viability were determined for the patient-derived colon cancer organoid models: SU60, T002C, SU62, SU34, SU103, T03SC, and SU106, patient-derived pancreatic cancer organoid models PA016SF, PA0143F, T016P, and T028P, and a patient-derived breast cancer organoid model FS5S3.
# (§5) Colony formation and viability assays were performed in multiwell plates seeded with organoids using an in vitro culture system composed of a Matrigel layer, media containing a defined set of growth factors, and co-culture with Wnt3 A-secreting mouse embryonic fibroblasts. Assays were initiated by adding either DMSO as a negative control, or an inhibitor panobinostatat 100×IC50 concentration as a positive control, or serially diluted Compound 1. The cultures were incubated for 168 or 144 hours after which the number of viable organoids in each test well was assessed respectively using one of two detection methods: CTG or staining with calcein-AM followed by imaging and colony counting. Colony count or viability of cells treated with compound 1 was expressed as a percent of the negative control. Aggregated Percent of Control values were plotted against the corresponding Compound 1 concentration and the absolute IC50 value was determined from a non-linear regression curve as the concentration where inhibition was 50% of the control.
# [2] = test system: SU103 patient-derived colon cancer organoid model; test: organoid colony formation assay, SU103; assay type: cell-based, human
# Protocol: as §4, §5
# [3] = test system: PA0143F patient-derived pancreatic cancer organoid model; test: organoid colony formation assay, PA0143F; assay type: cell-based, human
# Protocol: as §4, §5
# [4] = test system: T016P patient-derived pancreatic cancer organoid model; test: organoid colony formation assay, T016P; assay type: cell-based, human
# Protocol: as §4, §5
# [5] = test system: OCI-LY19 human diffuse large B-cell non-Hodgkin's lymphoma xenograft; assay type: in vivo; conditions: for Median Tumor Volume Diff.: Day 21 minus Day 0
# Protocol: The therapeutic in vivo efficacy of Compound 1 was evaluated in SU60 colorectal cancer, KYSE-150 esophageal cancer, COH70 triple-negative breast cancer, GXA-3036 gastric adenocarcinoma and OCI-LY19 Diffuse Large B-Cell Non-Hodgkin's Lymphoma xenograft models. In all studies, efficacy was determined based on percent tumor growth inhibition (TGI), differences in mean tumor growth, and statistical assessment of differences in net tumor volume distributions on the day of TGI analysis between control and treated animals. Tolerability was assessed based on differences in mean body weights between control and treated animals over the course of the study.
# The in vivo efficacy and tolerability of Compound 1, administered orally as the lysine salt form suspended in a 0.5% MC vehicle, were evaluated in female C.B-17 severe combined immunodeficient (scid) mice inoculated subcutaneously with OCI-LY19 tumor cells established from the bone marrow of a patient with diffuse large B-cell non-Hodgkin's lymphoma (DLBCL), stage 4B, at relapse. Each mouse was inoculated subcutaneously in the right flank with 5×10^6 OCI-LY19 tumor cells (0.1 ml) suspended in 50% Matrigel. When the average tumor size reached ˜165 mm3, test animals were randomized into 6 groups consisting of 8 mice per group and treatments were initiated. […] Compound 1-treated mice received the Compound 1 lysine salt form suspended in vehicle at 5, 15, or 50 mg/kg QD or at 25 mg/kg BID on the 3 on/4 off schedule. TGI was determined on Day 21 as (1−Difftreated/Diffcontrol)×100. Individual tumors were measured on the days shown in two dimensions using a caliper, and the tumor volumes (TV) in mm3 were calculated using the formula: TV=0.5 a×b2, where a and b are the long and short tumor diameters in mm, respectively. Mean tumor volumes±SEM were calculated and plotted versus days of dosing (FIG. 15 left panel). Body weights were measured twice weekly. Body weights±SEM were calculated and plotted versus days of dosing (FIG. 15 right panel). The difference in mean net tumor volumes on the day of TGI analysis for treated versus control animals was evaluated statistically using one-way ANOVA followed by Dunnett's multiple comparisons test; Adjusted p-values are shown where a calculated probability (p)≤0.05 was considered statistically significant.
# PNUTS mRNA = test: inhibition of PNUTS gene expression by qPCR in MDA-MB-231 cells; assay type: cell-based; conditions: Homo sapiens, 24 hours
# Protocol: In a study of the inhibitory effects of Compound 1 on the gene expression of PNUTS, MDA-MB-231 cells were treated for 24 hours and expression levels of PNUTS mRNA in response to Compound 1 treatment were measured by qPCR. The inhibition of PNUTS mRNA was quantified by calculating mean percent change in PNUTS gene expression following the Compound 1 treatment relative to the DMSO-treated control and IC50 value was calculated as concentration where inhibition was half-maximal. The IC50 value was 0.007 μM.
compound,measurement,setting,value
"CC(C)c1ccc(N(C)c2ccc3c(c2)OCC[C@H]3CNc2cnccc2C(=O)O)cc1 [Compound 1, 3-({[(4R)-7-{methyl[4-(propan-2-yl)phenyl]amino}-3,4-dihydro-2H-1-benzopyran-4-yl]methyl}amino)pyridine-4-carboxylic acid]",IC50,IMR-90,> 1 µM
same,IC50,ZR-75-1,> 10 µM
same,IC50,"[1]; Homo sapiens, T002C colorectal carcinoma model",< 0.15 µM
same,IC50,"[1]; T002C human colorectal carcinoma organoid, 144 hrs, Colony Counts",0.022 µM
same,IC50,"[2]; Homo sapiens, SU103 colorectal carcinoma model",> 10 µM
same,IC50,"[2]; SU103 human colorectal carcinoma organoid, 144 hrs, Colony Counts",> 10 µM
same,IC50,"[3]; Homo sapiens, PA0143F pancreatic carcinoma model",> 10 µM
same,IC50,"[3]; PA0143F human pancreatic carcinoma organoid, 144 hrs, Colony Counts",> 10 µM
same,IC50,"[4]; Homo sapiens, T016P pancreatic carcinoma model",> 10 µM
same,IC50,"[4]; T016P human pancreatic carcinoma organoid, 144 hrs, Colony Counts",> 10 µM
same,% TGI,"[5]; 5 mg/kg PO QD 3 on/4 off, Day 21, 5 mg/kg",55%
same,Median Tumor Volume Diff.,[5]; 5 mg/kg PO QD 3 on/4 off,920 mm^3
same,% TGI,"[5]; 15 mg/kg PO QD 3 on/4 off, Day 21, 15 mg/kg",83%
same,Median Tumor Volume Diff.,[5]; 15 mg/kg PO QD 3 on/4 off,345 mm^3
same,% TGI,"[5]; 25 mg/kg PO BID 3 on/4 off, Day 21, 25 mg/kg",102%
same,Median Tumor Volume Diff.,[5]; 25 mg/kg PO BID 3 on/4 off,−32 mm^3
same,% TGI,"[5]; 50 mg/kg PO QD 3 on/4 off, Day 21, 50 mg/kg",90%
same,Median Tumor Volume Diff.,[5]; 50 mg/kg PO QD 3 on/4 off,196 mm^3
same,tolerability (mean body weights),"[5]; female C.B-17 scid mice, all Compound 1 regimens",well-tolerated
same,Median Tumor Volume Day 21,"[5]; female C.B-17 scid mice, lysine salt 5 mg/kg PO QD 3 on/4 off",1088 mm^3
same,Median Tumor Volume Day 21,"[5]; female C.B-17 scid mice, lysine salt 15 mg/kg PO QD 3 on/4 off",512 mm^3
same,Median Tumor Volume Day 21,"[5]; female C.B-17 scid mice, lysine salt 25 mg/kg (free acid equivalents) PO BID 3 on/4 off",135 mm^3
same,Median Tumor Volume Day 21,"[5]; female C.B-17 scid mice, lysine salt 50 mg/kg PO QD 3 on/4 off",361 mm^3
same,IC50,PNUTS mRNA,0.007 µM

# Reference: US20250025451A1, “TREATMENT OF CANCER WITH KDM4 INHIBITORS” (Celgene Corporation, priority 2021, published 2025)
